From PMC9940101, “Elucidation of the (R)-enantiospecific benzylisoquinoline alkaloid biosynthetic pathways in sacred lotus (Nelumbo nucifera)” (Scientific Reports, 2023)

Tests used:
[1] = target: T1, NnOMT1 (Nelumbo nucifera, UniProt A0A3G1RSF0); assay: substrate conversion by LC-MS/MS; type: biochemical; details: 100 µM substrate, 200 µM SAM, pH 7.5, 30 °C; 6-O-methylation
T1 construct: gene 6OMT

[2] = tested on: NnOMT7; assay: LC-MS/MS product quantification, Michaelis-Menten fit; type: biochemical, Nelumbo nucifera; details: 400 µM SAM, 100 mM Tris-HCl pH 7.5, 30 °C, 5 min

T1 sequence (A0A3G1RSF0 entry or part of it): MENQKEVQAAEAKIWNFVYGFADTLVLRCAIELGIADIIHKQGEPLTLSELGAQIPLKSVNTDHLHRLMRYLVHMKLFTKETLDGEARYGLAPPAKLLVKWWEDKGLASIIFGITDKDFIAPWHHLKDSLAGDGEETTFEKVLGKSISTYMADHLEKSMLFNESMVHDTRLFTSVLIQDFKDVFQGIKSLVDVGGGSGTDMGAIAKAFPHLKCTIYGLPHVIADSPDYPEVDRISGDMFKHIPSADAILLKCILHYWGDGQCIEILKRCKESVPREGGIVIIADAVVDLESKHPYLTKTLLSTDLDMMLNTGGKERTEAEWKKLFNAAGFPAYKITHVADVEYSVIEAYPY

SMILES | substrate conversion by LC-MS/MS [1] | Km ([2]; 6-O-methylation) [µM] | Km ([2]; 7-O-methylation) [µM]
Oc1ccc(CC2NCCc3cc(O)c(O)cc32)cc1 (racemic) [(R,S)-norcoclaurine] | NnOMT1 activity with racemic norcoclaurine was higher compared with (S)-norcoclaurine | 143 ± 30 | 
Oc1ccc(C[C@@H]2NCCc3cc(O)c(O)cc32)cc1 [(S)-norcoclaurine] | NnOMT1 activity with racemic norcoclaurine was higher compared with (S)-norcoclaurine |  | 
COc1cc2c(cc1O)[C@H](Cc1ccc(O)cc1)N(C)CC2 [(S)-N-methylcoclaurine] |  |  | 48 ± 4
